Literature values in patent publication US9750812B2, “Lipid based pharmaceutical preparations for oral and topical application; their compositions, methods, and uses thereof” (JINA PHARMACEUTICALS, INC., priority 2008, dated 2017).

Q: For CC(C)(C)NC(=O)[C@H]1CC[C@H]2[C@@H]3CC[C@H]4NC(=O)C=C[C@]4(C)[C@H]3CC[C@]12C [finasteride, (5α, 17β)-N-(1,1-dimethylethyl)-3-oxo-4-azaandrost-1-ene-17-carboxamide], which “solubility in organic solvents” value (organic solvents such as ethanol and methanol) is on record?
A: soluble

Q: And the solubility in water (water)?
A: practically insoluble
